The values below are quoted from earlier work in patent US6174886A, “Antipsychotic use of triazolo-pyridazine derivatives” (Merck Sharp & Dohme Ltd., priority 1997, dated 2001).

Each structure is given as a SMILES string.

The subject of this series is schizophrenic patients with an acute psychotic episode.

`CC(C)(C)OC(=O)c1ncn2c1[C@@H]1CCCN1C(=O)c1c(Br)cccc1-2` [bretazenil]: the antipsychotic efficacy result is “moderate antipsychotic efficacy” and the “most frequent adverse reaction reported in the study” value is on record as “sedation”.
